According to article doi:10.1101/2023.03.31.535138v1 (biorxiv, 2023):

Molecular target: T1, NudC (Escherichia coli, UniProt P32664)
T1 sequence (P32664 1-257): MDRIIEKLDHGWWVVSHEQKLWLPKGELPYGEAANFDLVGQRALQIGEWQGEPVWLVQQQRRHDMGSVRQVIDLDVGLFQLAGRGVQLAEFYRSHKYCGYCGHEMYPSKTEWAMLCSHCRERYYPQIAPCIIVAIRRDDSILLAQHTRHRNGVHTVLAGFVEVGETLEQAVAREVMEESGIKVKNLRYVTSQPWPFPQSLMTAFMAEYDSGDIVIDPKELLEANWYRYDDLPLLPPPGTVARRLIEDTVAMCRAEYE
Assay: in vitro de-capping of NAD-RNA, gel assay, NudC activity plotted against ppGpp
Assay type: biochemical

Ki: ~70 µM
Structure (SMILES): Nc1nc2c(ncn2[C@@H]2O[C@H](COP(=O)(O)OP(=O)(O)O)[C@@H](OP(=O)(O)OP(=O)(O)O)[C@H]2O)c(=O)[nH]1 [ppGpp]
